What follows are compounds tested against T1, human Nav1.8 channels (Homo sapiens, UniProt Q9Y5Y9) (assay: Nav1.8 Qube automated patch-clamp assay). Conditions: human Nav1.8 stably expressed in HEK 293 cells; whole-cell voltage clamp, room temperature; resting or inactivated state not specified; read-out: IC50 values (nM) for Examples in the Nav1.8 Qube Assay.
T1 construct: expressed in transfected cells
Assay type: cell-based
Method in brief: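 Whole-cell patch clamp at room temperature on HEK293 cells stably expressing human Nav1.8. A 1 Hz train of ten 20 ms pulses to 10 mV from −90 mV holding, with −67 mV repolarization, was applied; first- and tenth-pulse peak currents gave resting and inactivated-state IC50s by Hill fitting.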

T1 sequence (Q9Y5Y9 whole entry): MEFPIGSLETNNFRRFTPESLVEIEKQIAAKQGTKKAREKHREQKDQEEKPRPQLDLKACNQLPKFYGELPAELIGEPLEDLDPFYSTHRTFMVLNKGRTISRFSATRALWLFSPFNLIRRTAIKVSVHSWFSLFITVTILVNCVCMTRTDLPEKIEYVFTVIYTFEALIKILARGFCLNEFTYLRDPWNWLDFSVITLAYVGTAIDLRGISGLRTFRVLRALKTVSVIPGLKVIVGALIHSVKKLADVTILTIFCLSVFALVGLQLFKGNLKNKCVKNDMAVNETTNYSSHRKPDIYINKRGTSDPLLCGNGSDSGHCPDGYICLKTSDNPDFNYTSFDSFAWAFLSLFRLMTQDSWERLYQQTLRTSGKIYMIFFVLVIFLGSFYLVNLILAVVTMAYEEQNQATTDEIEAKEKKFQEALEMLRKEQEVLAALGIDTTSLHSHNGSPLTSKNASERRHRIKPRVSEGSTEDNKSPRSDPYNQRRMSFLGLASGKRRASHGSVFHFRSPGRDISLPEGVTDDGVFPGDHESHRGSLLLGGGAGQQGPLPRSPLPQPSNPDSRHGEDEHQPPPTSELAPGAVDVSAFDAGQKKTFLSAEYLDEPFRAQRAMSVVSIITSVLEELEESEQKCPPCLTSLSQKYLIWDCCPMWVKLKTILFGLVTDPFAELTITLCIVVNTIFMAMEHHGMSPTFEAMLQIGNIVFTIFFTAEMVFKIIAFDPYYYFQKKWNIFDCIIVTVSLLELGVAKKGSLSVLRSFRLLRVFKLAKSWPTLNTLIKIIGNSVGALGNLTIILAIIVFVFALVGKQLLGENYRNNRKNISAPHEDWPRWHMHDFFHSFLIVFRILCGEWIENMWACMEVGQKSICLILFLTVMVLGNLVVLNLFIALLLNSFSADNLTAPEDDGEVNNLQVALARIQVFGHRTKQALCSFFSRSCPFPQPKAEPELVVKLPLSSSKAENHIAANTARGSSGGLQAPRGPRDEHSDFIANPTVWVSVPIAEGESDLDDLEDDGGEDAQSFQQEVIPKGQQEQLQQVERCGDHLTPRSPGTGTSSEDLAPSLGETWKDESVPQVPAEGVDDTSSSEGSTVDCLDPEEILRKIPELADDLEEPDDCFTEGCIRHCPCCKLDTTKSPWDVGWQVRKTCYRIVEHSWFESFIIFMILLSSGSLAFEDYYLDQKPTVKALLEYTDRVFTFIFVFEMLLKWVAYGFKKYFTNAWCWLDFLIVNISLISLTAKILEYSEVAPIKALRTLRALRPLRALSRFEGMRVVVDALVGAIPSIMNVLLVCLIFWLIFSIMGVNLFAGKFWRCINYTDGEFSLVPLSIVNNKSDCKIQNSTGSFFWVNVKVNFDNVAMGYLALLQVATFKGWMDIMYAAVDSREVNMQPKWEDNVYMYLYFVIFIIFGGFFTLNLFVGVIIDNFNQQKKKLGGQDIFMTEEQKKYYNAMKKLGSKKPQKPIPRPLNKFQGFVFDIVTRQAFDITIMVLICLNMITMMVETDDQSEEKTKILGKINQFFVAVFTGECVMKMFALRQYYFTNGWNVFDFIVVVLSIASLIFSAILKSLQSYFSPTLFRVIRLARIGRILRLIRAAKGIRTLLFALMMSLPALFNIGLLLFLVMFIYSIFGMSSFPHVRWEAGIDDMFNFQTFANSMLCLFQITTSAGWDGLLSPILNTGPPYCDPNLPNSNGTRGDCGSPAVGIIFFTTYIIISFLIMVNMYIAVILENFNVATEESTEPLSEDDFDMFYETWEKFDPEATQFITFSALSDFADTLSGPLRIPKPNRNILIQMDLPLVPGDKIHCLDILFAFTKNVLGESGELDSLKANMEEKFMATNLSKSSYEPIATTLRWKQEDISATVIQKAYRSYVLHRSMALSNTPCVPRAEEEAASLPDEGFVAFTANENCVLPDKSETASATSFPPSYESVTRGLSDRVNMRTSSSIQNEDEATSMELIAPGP

Compound | IC50 [nM]
COc1cncc(NC(=O)c2cc(C(F)(F)F)cnc2N2CCCCCC2)c1 [Example 194, 2-(azepan-1-yl)-N-(5-methoxy-3-pyridyl)-5-(trifluoromethyl)-pyridine-3-carboxamide] | 1550
CS(=O)(=O)c1cncc(NC(=O)c2cc(C(F)(F)F)cnc2N2CCCCCC2)c1 [Example 6, 2-(azepan-1-yl)-N-(5-(methylsulfonyl)pyridin-3-yl)-5-(trifluoromethyl)nicotinamide] | 355
CS(=O)(=O)c1cc(NC(=O)c2cc(C(F)(F)F)cnc2N2C[C@@H]3[C@H](C2)C(F)(F)C3(F)F)ccn1 [Example 151, N-(2-methylsulfonyl-4-pyridyl)-2-[(1R,5S)-6,6,7,7-tetrafluoro-3-azabicyclo[3.2.0]heptan-3-yl]-5-(trifluoro-methyl)pyridine-3-carboxamide] | 89
C[C@H]1CCN(c2ncc(C(F)(F)F)cc2C(=O)Nc2ccnc(S(N)(=O)=O)c2)CCO1 [Example 108, 2-[(7S)-7-methyl-1,4-oxazepan-4-yl]-N-(2-sulfamoyl-4-pyridyl)-5-(trifluoromethyl)pyridine-3-carboxamide] | 191
Cc1nc(N2CCC3(CC2)CC3)c(C(=O)Nc2cc[nH]c(=O)c2)c(C)c1Cl [Example 209, 5-chloro-4,6-dimethyl-N-(2-oxo-1,2-dihydropyridin-4-yl)-2-(6-azaspiro[2.5]octan-6-yl)nicotinamide] | 12
Cc1nc(C2CCCCCC2)c(C(=O)Nc2ccnc(S(N)(=O)=O)c2)c(C)c1Cl [Example 217, 5-chloro-2-cycloheptyl-4,6-dimethyl-N-(2-sulfamoylpyridin-4-yl)nicotinamide] | 3.2
CC1CN(c2ncc(C(F)(F)F)cc2C(=O)Nc2ccnc(S(N)(=O)=O)c2)CCC(C(F)(F)F)O1 (single isomer, unassigned) [Example 122, 2-((2R,7R or 2S,7S)-2-methyl-7-(trifluoromethyl)-1,4-oxazepan-4-yl)-N-(2-sulfamoylpyridin-4-yl)-5-(trifluoromethyl)nicotinamide] | 20
Cc1nc(N2CCCCCC2)c(C(=O)Nc2ccnc(S(N)(=O)=O)c2)c(C)c1Cl [Example 201, 2-(azepan-1-yl)-5-chloro-4,6-dimethyl-N-(2-sulfamoylpyridin-4-yl)nicotinamide] | 1.3
N#Cc1noc(NC(=O)c2cc(C(F)(F)F)cnc2N2CCCCCC2)n1 [Example 45, 2-(azepan-1-yl)-N-(3-cyano-1,2,4-oxadiazol-5-yl)-5-(trifluoromethyl)pyridine-3-carboxamide] | 1790
CC1CN(c2ncc(C(F)(F)F)cc2C(=O)Nc2ccnc(S(N)(=O)=O)c2)CCCC1(F)F (stereo not drawn) [Example 131, 2-(4,4-difluoro-3-methylazepan-1-yl)-N-(2-sulfamoylpyridin-4-yl)-5-(trifluoromethyl)nicotinamide] | 2
Cc1nc(N2CCOC(C(F)F)C2)c(C(=O)Nc2ccnc(S(N)(=O)=O)c2)cc1Cl (single isomer, unassigned) [Example 125, (R or S)-5-chloro-2-(2-(difluoromethyl)morpholino)-6-methyl-N-(2-sulfamoylpyridin-4-yl)nicotinamide] | 144
NS(=O)(=O)c1cc(NC(=O)c2cc(C(F)(F)F)cnc2N2CCc3cccc(C(F)(F)F)c3C2)ccn1 [Example 89, N-(2-sulfamoyl-4-pyridyl)-5-(trifluoromethyl)-2-[8-(trifluoromethyl)-3,4-dihydro-1H-isoquinolin-2-yl]pyridine-3-carboxamide] | 275
CS(=O)(=O)n1nc(NC(=O)c2cc(C(F)(F)F)cnc2N2CCCC(F)(F)CC2)c2ccccc21 [Example 34, 2-(4,4-difluoroazepan-1-yl)-N-[1-(methylsulfonyl)-1H-indazol-3-yl]-5-(trifluoromethyl)pyridine-3-carboxamide] | 50
NS(=O)(=O)c1cc(NC(=O)c2cc(C(F)(F)F)cnc2N2CCOC(C(F)(F)F)CC2)ccn1 (single isomer, unassigned) [Example 118, (R or S)-N-(2-sulfamoylpyridin-4-yl)-5-(trifluoromethyl)-2-(7-(trifluoromethyl)-1,4-oxazepan-4-yl)nicotinamide] | 54
NS(=O)(=O)c1cc(NC(=O)c2cc(C(F)(F)F)cnc2N2CCC(C(F)(F)F)C2)ccn1 (stereo not drawn) [Example 128, N-(2-sulfamoylpyridin-4-yl)-5-(trifluoromethyl)-2-[3-(trifluoromethyl)pyrrolidin-1-yl]pyridine-3-carboxamide] | 94
NS(=O)(=O)c1cc(NC(=O)c2cc(C(F)(F)F)cnc2N2CCC[C@@H]2C(F)(F)F)ccn1 [Example 127, (R)-N-(2-sulfamoylpyridin-4-yl)-5-(trifluoromethyl)-2-(2-(trifluoromethyl)pyrrolidin-1-yl)nicotinamide] | 220
O=C(Nc1cncc(CO)c1)c1cc(C(F)(F)F)cnc1N1CCCCCC1 [Example 196, 2-(azepan-1-yl)-N-[5-(hydroxymethyl)-3-pyridyl]-5-(trifluoro-methyl)pyridine-3-carboxamide] | 5190

Compound | IC50 [nM]
NS(=O)(=O)c1cc(NC(=O)c2cc(C(F)(F)F)cnc2N2CCOC(C(F)(F)F)CC2)ccn1 (single isomer, unassigned) [Example 119, (S or R)-N-(2-sulfamoylpyridin-4-yl)-5-(trifluoromethyl)-2-(7-(trifluoromethyl)-1,4-oxazepan-4-yl)nicotinamide] | 30
Cc1nc(N2CCCC(F)(F)CC2)c(C(=O)Nc2cnn(S(C)(=O)=O)c2)cc1Cl [Example 31, 5-chloro-2-(4,4-difluoroazepan-1-yl)-6-methyl-N-[1-(methylsulfonyl)-1H-pyrazol-4-yl]pyridine-3-carboxamide] | 4.1
O=C(Nc1ccnc(S(=O)(=O)O)c1)c1cc(C(F)(F)F)cnc1N1CCC(F)(F)CC1 [Example 176, 4-(2-(4,4-difluoropiperidin-1-yl)-5-(trifluoromethyl)nicotinamido)pyridine-2-sulfonic acid] | 1090
NS(=O)(=O)c1cc(NC(=O)c2cc(C(F)(F)F)cnc2N2CCC(Oc3cccc(C(F)(F)F)c3)CC2)ccn1 [Example 98, N-(2-sulfamoyl-4-pyridyl)-5-(trifluoromethyl)-2-[4-[3-(trifluoromethyl)phenoxy]-1-piperidyl]pyridine-3-carboxamide] | 2370
NS(=O)(=O)c1cc(NC(=O)c2cc(C(F)(F)F)cnc2N2CC3CC2CC3(F)F)ccn1 (single isomer, unassigned) [Example 71, 2-[(1R,4R or 1S,4S)-5,5-difluoro-2-azabicyclo[2.2.1]heptan-2-yl]-N-(2-sulfamoyl-4-pyridyl)-5-(trifluoromethyl)pyridine-3-carboxamide] | 60
Cc1nc(N2CCC3(CC2)CC3)c(C(=O)Nc2cncc(S(N)(=O)=O)c2)c(C)c1Cl [Example 190, 2-(6-azaspiro[2.5]octan-6-yl)-5-chloro-4,6-dimethyl-N-(5-sulfamoyl-3-pyridyl)pyridine-3-carboxamide] | 31
NS(=O)(=O)c1cc(NC(=O)c2cc(C(F)(F)F)cnc2N2CCC(C(F)(F)F)CC2)ccn1 [Example 82, N-(2-sulfamoyl-4-pyridyl)-5-(trifluoromethyl)-2-[4-(trifluoromethyl)-1-piperidyl]pyridine-3-carboxamide] | 54
Cc1nc(N2CCC(F)(F)CC2)c(C(=O)Nc2ccnc(S(N)(=O)=O)c2)cc1C(C)(C)C [Example 180, 5-(tert-butyl)-2-(4,4-difluoropiperidin-1-yl)-6-methyl-N-(2-sulfamoylpyridin-4-yl)nicotinamide] | 14
Cc1nc(N2CCCC(F)(F)CC2)c(C(=O)N(C)c2ccnc(S(N)(=O)=O)c2)c(C)c1Cl [Example 214, 5-chloro-2-(4,4-difluoroazepan-1-yl)-N,4,6-trimethyl-N-(2-sulfamoylpyridin-4-yl)nicotinamide] | 347
NS(=O)(=O)c1cc(NC(=O)c2cc(C(F)(F)F)cnc2N2CCC(F)(F)CCC2=O)ccn1 [Example 28, 2-(5,5-Difluoro-2-oxoazepan-1-yl)-N-(2-sulfamoylpyridin-4-yl)-5-(trifluoromethyl)nicotinamide] | 1300
NS(=O)(=O)c1cc(NC(=O)c2cc(C(F)(F)F)cnc2N2CCC3C(C2)C3(F)F)ccn1 (single isomer, unassigned) [Example 70, 2-((1R,6R or 1S,6S)-7,7-difluoro-3-azabicyclo[4.1.0]heptan-3-yl)-N-(2-sulfamoylpyridin-4-yl)-5-(trifluoromethyl)nicotinamide] | 41
NS(=O)(=O)c1cc(NC(=O)c2cc(C(F)(F)F)cnc2N2CCN(CC3CC3)C(=O)C2)ccn1 [Example 99, 2-[4-(cyclopropylmethyl)-3-oxo-piperazin-1-yl]-N-(2-sulfamoyl-4-pyridyl)-5-(trifluoromethyl)pyridine-3-carboxamide] | 2560
CC1CN(c2ncc(C(F)(F)F)cc2C(=O)Nc2ccnc(C(N)=O)c2)CCC1(F)F (single isomer, unassigned) [Example 157, N-(2-carbamoyl-4-pyridyl)-2-[(3R or 3S)-4,4-difluoro-3-methyl-1-piperidyl]-5-(trifluoromethyl)-pyridine-3-carboxamide] | 82
C[C@H]1CN(c2ncc(C(F)(F)F)cc2C(=O)Nc2ccnc(S(N)(=O)=O)c2)CCO1 [Example 110, 2-[(2S)-2-methylmorpholin-4-yl]-N-(2-sulfamoyl-4-pyridyl)-5-(trifluoromethyl)pyridine-3-carboxamide] | 505
NS(=O)(=O)c1cc(NC(=O)c2cc(N3CCCCC3)cnc2N2CCC(F)(F)CC2)ccn1 [Example 206, 2-(4,4-difluoropiperidin-1-yl)-5-(piperidin-1-yl)-N-(2-sulfamoylpyridin-4-yl)nicotinamide] | 363
Cc1sc(S(N)(=O)=O)cc1NC(=O)c1cc(C(F)(F)F)cnc1N1CCCCCC1 [Example 114, 2-(azepan-1-yl)-N-(2-methyl-5-sulfamoyl-thiophen-3-yl)-5-(trifluoromethyl)pyridine-3-carboxamide] | 95
